Source: patent US5616615A, “Enaminone esters” (priority 1995, dated 1997)
Where two headings read alike, the source gives them in different places.

Experiments:
[1] = system: Maximal electroshock seizures; assay: MES maximal electroshock seizure test, mice ip; type: in vivo; parameters: TPE (time of peak effect), activity: unit not given here; settings: for anti-MES protecting ability: Phase I
Procedure: Three tests were performed:
1. MES--Electroshock Seizure Test
(§1) Maximal electroshock seizures are elicited with a 60-cycle alternating current of 50 mA intensity (5-7 times that necessary to elicit minimal electroshock seizures) delivered via corneal electrodes for 0.2 seconds. A drop of 0.9% saline is instilled in the eye prior to application of the electrodes in order to […].

[2] = system: Subcutaneous Pentylenetetrazol seizure; assay: sc Met subcutaneous pentylenetetrazol (Metrazol) seizure test, mice; type: in vivo; settings: for responders at 300 mg/kg / responders at 100 mg/kg: Mus musculus, sc
Procedure: 2. sc Met--Subcutaneous Pentylenetetrazol (Metrazol^R) Seizure Test
The animal is observed for 30 minutes. Failure to observe even a threshold seizure (a single episode of clonic spasms of at least 5 seconds duration) is defined as protection and the results are expressed as the number of animals protected/the number of animals tested.

in vivo [3] = assay: in vivo
Procedure: (§2) The first phase of the ADD Program involved performing tests on male Carworth Farms #1 mice. […] Three tests were performed:
In the second phase of the ADD program protocol, estimates of anticonvulsant activity and neurotoxicity are quantified. The median effective dose (ED50) in the MES, sc Met, and rotorod test is determined. In the case of a compound with apparent activity in only one anticonvulsant test, testing is carried out in the other up to, and in some cases beyond, doses which produce neurological deficit. Compounds which fail to produce minimal neurological deficit are tested whenever possible to doses ten times their lowest anticonvulsant ED50. […] The rotorod ED50 is determined at the time of the peak neurologic deficit.

seizures = assay: Anticonvulsant evaluation (ASP phase I / overall); type: in vivo, mice; settings: Mus musculus, ip, read-out: ASP Classification
Procedure: as §2, §1
The animal is observed for 30 minutes.

[4] = system: Maximal electroshock seizures; assay: Phase VI oral MES test, rats; type: in vivo; settings: for responders at 50 mg/kg: Rattus norvegicus
Text: as §1
(§3) This oral screen is designated as phase VI.

in vivo [5] = settings: rat, po, 50 mg/kg
Text: as §3

[6] = Mus musculus, ip, 0.5 h, 300 mg/kg, 30 min, read-out: MES, animals protected/tested
[7] = Mus musculus, ip, 2 h, Phase II, 100 mg/kg, 2.00 h, read-out: MES, animals protected/tested (converted)
[8] = Mus musculus, ip, 3 h, Phase II, 100 mg/kg, 3.00 h, read-out: MES, animals protected/tested (converted)
[9] = Mus musculus, ip, 4 h, 300 mg/kg, 4 h, read-out: MES, animals protected/tested
[10] = 0.5 h, 300 mg/kg, 30 min, read-out: scMet, animals protected/tested (converted)
[11] = 4 h, 300 mg/kg, 4 h, read-out: scMet, animals protected/tested (converted)
[12] = Mus musculus, ip, 0.5 h, 100 mg/kg, 30 min, read-out: MES, animals protected/tested (converted)
[13] = Mus musculus, ip, 0.5 h, Phase II, 0.50 h, read-out: MES, animals protected/tested
[14] = Mus musculus, ip, 0.5 h, Phase II, 0.50 h, read-out: MES, animals protected/tested (converted)
[15] = Mus musculus, ip, 4 h, 100 mg/kg, 4 h, read-out: MES, animals protected/tested (converted)
[16] = 0.5 h, 100 mg/kg, 30 min, read-out: scMet, animals protected/tested (converted)
[17] = 4 h, 100 mg/kg, 4 h, read-out: scMet, animals protected/tested (converted)
[18] = 0.5 h, oral, 50 mg/kg, 0.50 h, read-out: MES, animals protected/tested (converted)
[19] = oral, 50 mg/kg, 0.25 h, read-out: MES, animals protected/tested (converted)
[20] = oral, 50 mg/kg, 1.00 h, read-out: MES, animals protected/tested (converted)
[21] = oral, 50 mg/kg, 2.00 h, read-out: MES, animals protected/tested (converted)
[22] = Mus musculus, ip, 0.25 h, mice ip, 0.25 h, read-out: MES, animals protected/tested (converted)
[23] = Mus musculus, ip, 0.5 h, mice ip, 0.50 h, read-out: MES, animals protected/tested (converted)
[24] = Mus musculus, ip, 1 h, mice ip, 1.00 h, read-out: MES, animals protected/tested (converted)
[25] = Mus musculus, ip, 2 h, mice ip, 2.00 h, read-out: MES, animals protected/tested (converted)
[26] = Mus musculus, ip, 4 h, mice ip, 4.00 h, read-out: MES, animals protected/tested (converted)
[27] = oral, 50 mg/kg, 4.00 h, read-out: MES, animals protected/tested (converted)
[28] = Mus musculus, ip, 0.5 h, read-out: MES, animals protected/tested
[29] = Mus musculus, ip, 4 h, read-out: MES, animals protected/tested
[30] = 0.5 h, read-out: scMet, animals protected/tested
[31] = 4 h, read-out: scMet, animals protected/tested

Row | SMILES | responders at 300 mg/kg [1, 6] | responders at 300 mg/kg [1, 9] | responders at 300 mg/kg [2, 10] | responders at 300 mg/kg [2, 11] | Tox (rotorod), animals toxic/tested (in vivo [3]; mouse, in vivo, 100 mg/kg) | minimal effective dose (seizures; Phase I) | responders at 100 mg/kg [1, 12] | responders at 100 mg/kg [1, 15] | responders at 100 mg/kg [2, 16] | responders at 100 mg/kg [2, 17] | responders at 50 mg/kg [4, 18] | responders at 50 mg/kg [4, 19] | responders at 50 mg/kg [4, 20] | responders at 50 mg/kg [4, 21] | Tox, animals toxic/tested (in vivo [5]) | further results
1 | COC(=O)C1C(=O)C=C(Nc2ccc([N+](=O)[O-])cc2)CC1(C)C (stereo not drawn) [Compound 118] | 0% | 100% | 0% | 0% | 0/2 | > 100 mg/kg |  |  |  |  |  |  |  |  |  | responders at 100 mg/kg [1, 7]: 0%; responders at 100 mg/kg [1, 8]: 0%
2 | COC(=O)C1C(=O)C=C(Nc2ccc(C(F)(F)F)cc2)CC1(C)C (stereo not drawn) [Compound 121] | 100% | 100% | 0% | 0% |  | < 100 mg/kg | 100% | 100% | 0% | 0% | 75% | 75% | 100% | 100% | 0/4 | responders at 3 mg/kg [1, 13]: 0%; responders at 10 mg/kg [1, 14]: 0%; Tox (rotorod), animals toxic/tested (in vivo [3]; mouse, in vivo, 3 mg/kg): 0/4; Tox (rotorod), animals toxic/tested (in vivo [3]; mouse, in vivo, 10 mg/kg): 0/4
3 | CCOC(=O)C1C(=O)C=C(Nc2ccc(Cl)cc2)CC1C (stereo not drawn) [Compound 122] | 100% | 100% | 100% | 0% |  | < 100 mg/kg | 100% | 0% | 0% | 0% | 100% | 75% | 75% | 100% | 0/4 | responders at 10 mg/kg [1, 22]: 75%; responders at 3 mg/kg [1, 13]: 0%; responders at 10 mg/kg [1, 14]: 25%; responders at 10 mg/kg [1, 23]: 75%; responders at 10 mg/kg [1, 24]: 100%; responders at 10 mg/kg [1, 25]: 25%; responders at 10 mg/kg [1, 26]: 25%; anti-MES protecting ability [1]: showed anti-MES protecting ability; responders at 300 mg/kg ([2]; 0.5 h, 300 mg/kg, 30 min, second trial, read-out: scMet, animals protected/tested (converted)): 50%; Tox (rotorod), animals toxic/tested (in vivo [3]; mouse, in vivo, 3 mg/kg): 0/4; Tox (rotorod), animals toxic/tested (in vivo [3]; mouse, in vivo, 10 mg/kg): 0/4
4 | CCOC(=O)C1C(=O)C=C(Nc2ccc(Br)cc2)CC1C (stereo not drawn) [Compound 123] | 100% | 100% | 0% | 0% |  | < 100 mg/kg | 100% | 66.7% | 0% | 0% | 100% | 100% | 100% | 100% | 0/4 | responders at 10 mg/kg [1, 22]: 75%; responders at 10 mg/kg [1, 23]: 75%; responders at 10 mg/kg [1, 24]: 75%; responders at 10 mg/kg [1, 25]: 50%; responders at 10 mg/kg [1, 26]: 0%; anti-MES protecting ability [1]: showed anti-MES protecting ability; Tox, animals toxic/tested (in vivo [3]; mouse, in vivo, ip, 100 mg/kg): 0/8; responders at 50 mg/kg [4, 27]: 100%
5 | CCOC(=O)C1C(=O)C=C(Nc2cc(OC)ccc2OC)CC1C (stereo not drawn) [Compound 128] | 100% | 0% | 0% | 0% | 0/2 | > 100 mg/kg |  |  |  |  |  |  |  |  |  | responders at 100 mg/kg ([1]; Mus musculus, ip, 0.25 h, Phase II, 100 mg/kg, 0.25 h, read-out: MES, animals protected/tested (converted)): 0%; responders at 100 mg/kg ([1]; Mus musculus, ip, 1 h, Phase II, 100 mg/kg, 1.00 h, read-out: MES, animals protected/tested (converted)): 0%
6 | CCc1ccc(NC2=CC(=O)CC(C)(C)C2)cc1 [Compound 140] | 0% | 100% | 0% | 0% | 0/2 | > 100 mg/kg |  |  |  |  |  |  |  |  |  | responders at 100 mg/kg [1, 7]: 0%; responders at 100 mg/kg [1, 8]: 0%
7 | CC1(C)CC(=O)C=C(NCCc2ccccc2)C1 [Compound 145] |  |  |  |  |  |  |  |  |  |  |  |  |  |  |  | responders at 100 mg/kg ([1]; Mus musculus, ip, 0.25 h, read-out: MES, animals protected/tested): 0%; responders at 300 mg/kg [1, 28]: 100%; responders at 100 mg/kg ([1]; Mus musculus, ip, 1 h, read-out: MES, animals protected/tested): 0%; responders at 300 mg/kg [1, 29]: 0%; responders at 300 mg/kg [2, 30]: 0%; responders at 300 mg/kg [2, 31]: 0%; Tox, animals exhibiting toxicity/tested (in vivo [3]; 300 mg/kg, 30 min): 4/4; Tox, animals exhibiting toxicity/tested (in vivo [3]; 300 mg/kg, 4 h): 0/2; Tox (rotorod), animals toxic/tested (in vivo [3]; Phase II, 100 mg/kg, 0.25 h): 0/2; Tox (rotorod), animals toxic/tested (in vivo [3]; Phase II, 100 mg/kg, 1.00 h): 0/2; minimal effective dose (seizures): > 100 mg/kg
8 | O=C1C=C(NCCc2ccccc2)CCC1 [Compound 149] |  |  |  |  |  |  |  |  |  |  |  |  |  |  |  | responders at 100 mg/kg [1, 28]: 100%; responders at 300 mg/kg [1, 28]: 100%; responders at 100 mg/kg [1, 29]: 0%; responders at 300 mg/kg [1, 29]: 0%; responders at 100 mg/kg [2, 30]: 0%; responders at 100 mg/kg [2, 31]: 0%; responders at 300 mg/kg [2, 31]: 0%; Tox, animals exhibiting toxicity/tested (in vivo [3]; 100 mg/kg, 30 min): 4/8; Tox, animals exhibiting toxicity/tested (in vivo [3]; 100 mg/kg, 4 h): 0/4; Tox, animals exhibiting toxicity/tested (in vivo [3]; 300 mg/kg, 4 h): 1/2; responders at 50 mg/kg ([4]; po, 0.25 h, read-out: MES, animals protected/tested): 100%; responders at 50 mg/kg ([4]; po, 0.5 h, read-out: MES, animals protected/tested): 100%; responders at 50 mg/kg ([4]; po, 1 h, read-out: MES, animals protected/tested): 75%; responders at 50 mg/kg ([4]; po, 2 h, read-out: MES, animals protected/tested): 25%; responders at 50 mg/kg ([4]; po, 4 h, read-out: MES, animals protected/tested): 25%; minimal effective dose (seizures): < 100 mg/kg
9 | O=C1C=C(Nc2ccc(Cl)cc2)CC1 [Compound 152, 3-(4'-Chlorophenyl)amino-2-cyclopentenone] | 100% | 0% | 0% | 0% |  | < 100 mg/kg | 33.3% | 0% | 0% | 0% | 25% | 0% | 25% | 75% | 0/4 | responders at 50 mg/kg [4, 27]: 50%
10 | O=C1C=C(NCCc2ccccc2)CCC1 [Compound 154] |  |  |  |  | 0/2 |  |  |  |  |  |  |  |  |  | 0/4 | MES, animals protected/tested ([1]; 300 mg/kg, 30 min): 1/1; MES, animals protected/tested ([1]; 300 mg/kg, 4 h): 0/1; MES, animals protected/tested ([1]; Phase II, 100 mg/kg, 0.25 h): 2/2; MES, animals protected/tested ([1]; Phase II, 100 mg/kg, 1.00 h): 0/2; scMet, animals protected/tested ([2]; 300 mg/kg, 30 min): 0/1; scMet, animals protected/tested ([2]; 300 mg/kg, 4 h): 0/1; MES, animals protected/tested ([4]; oral, 50 mg/kg, 0.25 h): 0/4; MES, animals protected/tested ([4]; oral, 50 mg/kg, 0.50 h): 0/4; MES, animals protected/tested ([4]; oral, 50 mg/kg, 1.00 h): 0/4; MES, animals protected/tested ([4]; oral, 50 mg/kg, 2.00 h): 0/4; MES, animals protected/tested ([4]; oral, 50 mg/kg, 4.00 h): 0/4
11 | CCCC(CCC)C(=O)O [valproate, reference compound] |  |  |  |  |  |  |  |  |  |  |  |  |  |  |  | ED50 ([1]; Mus musculus, Phase II, ip, time of peak effect): 665 mg/kg; TPE (time of peak effect), activity ([1]; Phase II, ip): 1; TPE (time of peak effect), toxicity (in vivo [3]; Phase II, ip, commercial products, onset of ataxia): 2
